{"source": "paper PMC6532841", "about": "(PLoS Genetics, 2019)", "assay_in_all_cases": "cAMP inhibition assay (ALPHAScreen), transfected CHO-K1", "assay_type_in_all_cases": "cell-based", "key": {"[1]": {"biological_target": "T1, chimpanzee HCA3 (Pan troglodytes, UniProt A0A2J8MD62)", "T1 construct": "gene HCAR3; full-length, HA/FLAG tags, CHO-K1", "conditions": "agonist; 2 μM forskolin; HBSS", "text": "cAMP inhibition assay (ALPHAScreen), transfected CHO-K1 on chimpanzee HCA3"}, "[2]": {"biological_target": "T2, siamang HCA3 (Symphalangus syndactylus, UniProt Z9POU2MJD9)", "T2 construct": "full-length, HA/FLAG tags, CHO-K1", "conditions": "read-out: EC50 (μM) (95% CI)", "text": "cAMP inhibition assay (ALPHAScreen), transfected CHO-K1 on siamang HCA3"}, "[3]": {"biological_target": "T3, orangutan HCA3 (Pongo pygmaeus, UniProt A0A4Y1JWR4)", "T3 construct": "gene HCAR3; full-length, HA/FLAG tags, CHO-K1", "T3 sequence (A0A4Y1JWR4 1-363)": "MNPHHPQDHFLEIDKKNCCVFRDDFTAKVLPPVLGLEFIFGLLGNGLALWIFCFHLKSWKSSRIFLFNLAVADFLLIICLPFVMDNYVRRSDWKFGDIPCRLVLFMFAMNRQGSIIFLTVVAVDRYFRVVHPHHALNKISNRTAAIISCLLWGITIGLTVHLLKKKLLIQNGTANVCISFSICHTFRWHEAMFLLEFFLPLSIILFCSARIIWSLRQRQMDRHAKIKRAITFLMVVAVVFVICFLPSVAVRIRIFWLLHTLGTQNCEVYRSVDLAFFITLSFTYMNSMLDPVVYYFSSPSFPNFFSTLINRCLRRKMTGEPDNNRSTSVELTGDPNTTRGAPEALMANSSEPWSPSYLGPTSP", "conditions": "read-out: EC50 (μM) (95% CI)", "text": "cAMP inhibition assay (ALPHAScreen), transfected CHO-K1 on orangutan HCA3"}, "[4]": {"biological_target": "T4, human HCA3 (Homo sapiens, UniProt P49019)", "T4 construct": "gene HCAR3; full-length, N-terminal HA and C-terminal FLAG tag, pcDps, transient in CHO-K1", "T4 sequence (P49019 whole entry)": "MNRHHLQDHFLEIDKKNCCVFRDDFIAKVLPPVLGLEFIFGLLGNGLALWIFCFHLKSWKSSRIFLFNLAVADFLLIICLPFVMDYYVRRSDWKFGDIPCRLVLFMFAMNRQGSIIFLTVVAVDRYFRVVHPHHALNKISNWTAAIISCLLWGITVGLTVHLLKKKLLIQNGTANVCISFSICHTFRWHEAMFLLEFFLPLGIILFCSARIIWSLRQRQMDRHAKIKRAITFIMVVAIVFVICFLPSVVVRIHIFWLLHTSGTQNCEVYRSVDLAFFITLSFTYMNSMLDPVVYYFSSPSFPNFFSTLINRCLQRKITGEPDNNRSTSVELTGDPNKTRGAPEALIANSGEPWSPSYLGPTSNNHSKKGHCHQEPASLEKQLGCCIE", "conditions": "read-out: EC50 (μM) (95% CI)", "text": "cAMP inhibition assay (ALPHAScreen), transfected CHO-K1 on human HCA3"}, "[5]": {"biological_target": "T5, human HCA2 (Homo sapiens, UniProt Q8TDS4)", "T5 construct": "gene HCAR2; full-length, N-terminal HA and C-terminal FLAG tag, pcDps, transient in CHO-K1", "T5 sequence (Q8TDS4 whole entry)": "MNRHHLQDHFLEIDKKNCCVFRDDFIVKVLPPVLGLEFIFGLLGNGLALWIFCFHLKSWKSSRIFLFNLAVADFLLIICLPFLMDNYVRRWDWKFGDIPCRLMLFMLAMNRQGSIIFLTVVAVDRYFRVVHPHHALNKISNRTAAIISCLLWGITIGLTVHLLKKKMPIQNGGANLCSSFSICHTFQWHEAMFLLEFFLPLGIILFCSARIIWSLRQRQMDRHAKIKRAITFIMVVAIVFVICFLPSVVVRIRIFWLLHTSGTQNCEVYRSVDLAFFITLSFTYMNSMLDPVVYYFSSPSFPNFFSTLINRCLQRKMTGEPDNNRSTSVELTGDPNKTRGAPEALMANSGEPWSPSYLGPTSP", "conditions": "read-out: HCA3 / Basal cAMP (% of mock-transfected)", "text": "cAMP inhibition assay (ALPHAScreen), transfected CHO-K1 on human HCA2"}, "[6]": {"biological_target": "T6, mouse HCA2 (Mus musculus, UniProt Q9EP66)", "T6 construct": "gene Hcar2; full-length, N-terminal HA and C-terminal FLAG tag, CHO-K1", "T6 sequence (Q9EP66 whole entry)": "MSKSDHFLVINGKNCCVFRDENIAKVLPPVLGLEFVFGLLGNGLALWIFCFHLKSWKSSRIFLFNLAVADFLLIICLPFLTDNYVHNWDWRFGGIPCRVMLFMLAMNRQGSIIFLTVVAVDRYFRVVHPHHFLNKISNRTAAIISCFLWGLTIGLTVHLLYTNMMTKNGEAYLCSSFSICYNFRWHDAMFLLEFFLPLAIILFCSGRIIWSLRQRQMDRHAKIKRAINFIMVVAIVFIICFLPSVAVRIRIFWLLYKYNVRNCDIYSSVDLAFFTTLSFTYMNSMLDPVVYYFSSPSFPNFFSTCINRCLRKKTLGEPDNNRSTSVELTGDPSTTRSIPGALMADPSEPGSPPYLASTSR", "text": "cAMP inhibition assay (ALPHAScreen), transfected CHO-K1 on mouse HCA2"}, "[7]": {"biological_target": "T7, orangutan HCA2 (Pongo abelii, UniProt A0A8I5YUU0)", "T7 construct": "gene HCAR2; full-length, HA/FLAG tags, CHO-K1", "T7 sequence (A0A8I5YUU0 1-363)": "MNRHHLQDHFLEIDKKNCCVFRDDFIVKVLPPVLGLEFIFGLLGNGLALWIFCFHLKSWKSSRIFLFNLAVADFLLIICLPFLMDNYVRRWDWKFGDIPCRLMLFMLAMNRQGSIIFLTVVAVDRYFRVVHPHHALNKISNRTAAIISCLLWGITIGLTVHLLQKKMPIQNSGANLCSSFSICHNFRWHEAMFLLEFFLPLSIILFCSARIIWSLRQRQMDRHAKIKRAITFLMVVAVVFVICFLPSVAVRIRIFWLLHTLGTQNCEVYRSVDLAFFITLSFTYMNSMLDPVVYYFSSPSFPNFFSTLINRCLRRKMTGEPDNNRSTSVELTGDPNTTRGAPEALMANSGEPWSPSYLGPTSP", "text": "cAMP inhibition assay (ALPHAScreen), transfected CHO-K1 on orangutan HCA2"}, "[8]": {"biological_target": "T8, chimpanzee HCA1 (Pan troglodytes, UniProt A0A2I3T0E0)", "T8 construct": "gene HCAR1; full-length, HA/FLAG tags, CHO-K1", "T8 sequence (A0A2I3T0E0 1-346)": "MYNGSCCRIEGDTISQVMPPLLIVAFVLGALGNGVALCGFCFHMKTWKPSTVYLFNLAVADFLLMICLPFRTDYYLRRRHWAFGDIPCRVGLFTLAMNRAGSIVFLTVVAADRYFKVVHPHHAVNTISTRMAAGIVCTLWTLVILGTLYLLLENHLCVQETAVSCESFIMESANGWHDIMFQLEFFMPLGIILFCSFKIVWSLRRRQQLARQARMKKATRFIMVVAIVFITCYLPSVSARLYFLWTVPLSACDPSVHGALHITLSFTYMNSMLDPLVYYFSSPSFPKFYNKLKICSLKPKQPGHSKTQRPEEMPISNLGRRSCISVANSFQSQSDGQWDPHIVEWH", "text": "cAMP inhibition assay (ALPHAScreen), transfected CHO-K1 on chimpanzee HCA1"}, "[9]": {"biological_target": "T9, mouse HCA1 (Mus musculus, UniProt Q8C131)", "T9 construct": "gene Hcar1; full-length, N-terminal HA and C-terminal FLAG tag, CHO-K1", "T9 sequence (Q8C131 1-343)": "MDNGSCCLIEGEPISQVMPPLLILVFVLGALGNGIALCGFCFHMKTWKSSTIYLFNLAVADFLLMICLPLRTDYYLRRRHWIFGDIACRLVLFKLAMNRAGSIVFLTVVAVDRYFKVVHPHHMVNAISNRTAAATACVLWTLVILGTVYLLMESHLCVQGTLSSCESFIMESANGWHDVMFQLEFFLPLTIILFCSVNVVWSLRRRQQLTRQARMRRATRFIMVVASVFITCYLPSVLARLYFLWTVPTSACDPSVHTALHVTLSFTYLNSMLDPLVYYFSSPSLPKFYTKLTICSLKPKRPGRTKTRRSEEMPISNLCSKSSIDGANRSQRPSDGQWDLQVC", "text": "cAMP inhibition assay (ALPHAScreen), transfected CHO-K1 on mouse HCA1"}, "[10]": {"biological_target": "T10, human HCA1 (Homo sapiens, UniProt Q9BXC0)", "T10 construct": "gene HCAR1; full-length, N-terminal HA and C-terminal FLAG tag, pcDps, transient in CHO-K1", "T10 sequence (Q9BXC0 whole entry)": "as the sequence (A0A2I3T0E0 1-346) above, with M131V, T141A, L148V, L249S counted along it", "conditions": "read-out: HCA2 / Basal cAMP (% of mock-transfected)", "text": "cAMP inhibition assay (ALPHAScreen), transfected CHO-K1 on human HCA1"}, "[11]": {"biological_target": "T11, gorilla HCA1 (Gorilla gorilla, UniProt A0A2I2YNR0)", "T11 construct": "gene HCAR1; full-length, HA/FLAG tags, CHO-K1", "T11 sequence (A0A2I2YNR0 1-346)": "as the sequence (A0A2I3T0E0 1-346) above, with I23V, L249S counted along it", "text": "cAMP inhibition assay (ALPHAScreen), transfected CHO-K1 on gorilla HCA1"}}}
{"smiles": "O=C(O)[C@H](O)Cc1ccccc1", "note": "[D-PLA]", "values": [{"measurement": "EC50 (μM) (95% CI)", "setting": "[1]", "value": "0.13 (0.08–0. 22) μM"}, {"measurement": "EC50", "setting": "[2]", "value": 0.28, "unit": "µM"}, {"measurement": "EC50", "setting": "[3]", "value": 1.2, "unit": "µM"}, {"measurement": "EC50", "setting": "[4]", "value": 0.15, "unit": "µM"}]}
{"smiles": "C[C@@H](O)CC(=O)O", "note": "[D-3HB]", "values": [{"measurement": "EC50", "setting": "[5]", "value": 530, "unit": "µM"}, {"measurement": "EC50", "setting": "[6]", "value": 1.03, "unit": "mM"}, {"measurement": "EC50", "setting": "[7]", "value": 680, "unit": "µM"}]}
{"smiles": "C[C@H](O)C(=O)O", "note": "[L-lactate]", "values": [{"measurement": "EC50", "setting": "[8]", "value": 4.1, "unit": "mM"}, {"measurement": "EC50", "setting": "[9]", "value": 2.9, "unit": "mM"}, {"measurement": "EC50", "setting": "[10]", "value": 2.4, "unit": "mM"}, {"measurement": "EC50", "setting": "[11]", "value": 2.3, "unit": "mM"}]}
